These molecules were tested against T1, acetylcholine muscarinic M1 receptor (Homo sapiens, UniProt P11229) (assay: muscarinic FLIPR assay: potentiation of acetylcholine-stimulated intracellular Ca2+ in CHOnfat/hM1 cells). Conditions: 4 min preincubation, then EC20 acetylcholine (3 nM final), read-out: IP Value (inflection point).
T1 construct: expressed in transfected cells; host or cells: CHOnfat (CHO cells, Geneticin-selected)
T1 sequence (P11229 1-460): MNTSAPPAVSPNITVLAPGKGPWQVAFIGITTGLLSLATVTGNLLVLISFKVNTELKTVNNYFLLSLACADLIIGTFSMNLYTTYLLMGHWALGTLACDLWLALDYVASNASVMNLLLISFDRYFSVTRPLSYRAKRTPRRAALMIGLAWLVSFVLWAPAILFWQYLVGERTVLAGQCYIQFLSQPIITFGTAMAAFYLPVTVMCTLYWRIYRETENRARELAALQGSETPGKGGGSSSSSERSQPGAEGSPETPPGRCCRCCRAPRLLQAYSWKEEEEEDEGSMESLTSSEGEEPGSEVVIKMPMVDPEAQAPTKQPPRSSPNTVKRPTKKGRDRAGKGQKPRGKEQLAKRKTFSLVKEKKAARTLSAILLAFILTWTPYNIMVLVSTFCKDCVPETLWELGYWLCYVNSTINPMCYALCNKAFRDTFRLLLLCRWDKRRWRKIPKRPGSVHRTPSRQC
Type: cell-based
Procedure: The assay studies the effect of one or several concentrations of test compounds on basal or acetylcholine-stimulated Ca^2+ levels using FLIPR.
Compounds are prepared and subjected to a preincubation period of 4 min. Thereafter, a single EC20 concentration of acetylcholine is added to each well (3 nM final). The intracellular Ca^2+ level of each sample is measured and compared to an acetylcholine control to determine any modulatory activity.
Cells: CHOnfat/hM1, hM2, hM3 or hM4 cells are plated 24 hr before the assay at a density of 18,000 cells/well (100 μL) in a 384 well plate. CHOnfat/hM1 and CHOnfat/hM3 Growth Medium: 90% DMEM (Hi Glucose); 10% HI FBS; 2 mM L-glutamine; 0.1 mM NEAA; Pen-Strep; and 1 mg/ml Geneticin, are added. For M2Gqi5CHOnfat and M4Gqi5CHOnfat cells, an additional 600 μg/ml hygromycin is added.
Equipment: 384 well plate, 120 μL addition plate; 96-well Whatman 2 ml Uniplate Incubator, 37° C., 5% CO2; Skatron EMBLA-384 Plate Washer; Multimek Pipetting System; Genesis Freedom 200 System; Mosquito System; Temo Nanolitre Pipetting System; and FLIPR^384 Fluorometric Imaging Plate Reader System are used.
Buffers. Assay Buffer: Hanks Balanced Salt Solution, with 20 mM Hepes, 2.5 mM Probenecid (Sigma P-8761) first dissolved in 1N aqueous NaOH, 1% Bovine Serum Albumin (Sigma A-9647). Dye Loading Buffer: Assay Buffer plus 1% Fetal Bovine Serum and Fluo-4AM/Pluronic Acid Mixture. 2 mM Fluo-4AM ester stock in DMSO (Molecular Probes F-14202) Concentration of 2 μM in buffer for a final concentration of 1 μM in Assay. 20% Pluronic Acid Solution stock, with a concentration of 0.04% in Buffer, 0.02% in Assay.
65 μL of 2 mM Fluo-4AM are mixed with 130 μL of 20% Pluronic Acid. The resulting solution and 650 μL FBS is added to the assay buffer for a total volume of 65 mL. Positive Controls: 4-Br-A23187: 10 mM in DMSO; final concentration 10 μM. Acetylcholine: 10 mM in water, working stock at both 20 μM and 30 μM in assay buffer, final concentration of 10 μM. This is used to check the maximum stimulation of the CHOK1/hM1 cells. 20 μM (2×) acetylcholine is added in the preincubation part of the assay, and the 30 μM (3×) stock is added in the second part. (EC20)Acetylcholine: 10 mM in water, working stock of 9 nM (3×), and final concentration in assay is 3 nM. This is used after the preincubation with test compounds. Addition of the EC20 Acetylcholine to each well with a test compound will ascertain any modulator activity. 24 wells contain 3 nM Acetylcholine alone as a control.
Determining Activity of Putative Compounds:
Screening Plate Compounds are titrated in 96-well plates (columns 2-11), 100% DMSO, started at a concentration of 15 mM (150× stock concentration), and 3-fold serial dilutions using Genesis Freedom200 System. Four 96-well plates are combined into a 384-well plate using Mosquito Nanolitre Pipetting System by transferring 1 μl of serial diluted compounds to each well, and 1 mM acetylcholine (100× stock concentration) were added as a control. Using Temo, 49 μl assay buffer is added to each well of the 384-well plate right before assay.
In a 96-well Whatman 2 ml Uniplate, 9 nM Acetylcholine (3×) is pipetted into wells corresponding to the screening compounds and into control wells. The 30 μM acetylcholine control (3×) is added into control wells and the 3× agonist plate is transferred into a 384-well plate.
Cells are washed three times with 100 μL of buffer, leaving 30 μL of buffer in each well. Using Multimek, 30 μL of Dye Loading Buffer is added into each well and incubated at 37° C., 5% CO2 for up to one hr.
After 60 min, the cells are washed three times with 100 μL of buffer, leaving 30 μL of buffer in each well. The cell plate, screening plate, and agonist addition plates are placed on the platform in the FLIPR and the door is closed. A signal test to check background fluorescence and basal fluorescence signal is performed. Laser intensity is adjusted if necessary. […]

| SMILES | EC50 |
| --- | --- |
| O=C(O)c1cc(CN2CCN(c3ccc(C(F)(F)F)cc3)CC2)c2ccccn2c1=O [Example 1, 4-oxo-1-({4-[4-(trifluoromethyl)phenyl]piperazin-1-yl}methyl)-4H-quinolizine-3-carboxylic acid] | 0.27 µM |
| O=C(O)c1cc(CN2CCN(c3ccc(Br)cc3)CC2)c2ccccn2c1=O [Example 61] | 0.132 µM |
| Cn1cc(N2CCN(Cc3cc(C(=O)O)c(=O)n4ccccc34)CC2)cn1 [Example 113] | 0.408 µM |
| O=C(O)c1cc(CN2CCN(c3cc4ccccc4cn3)CC2)c2ccccn2c1=O [Example 133] | 0.09 µM |
| C=Cc1cc(N2CCN(Cc3cc(C(=O)O)c(=O)n4ccccc34)CC2)ccn1 [Example 148, 4-Oxo-1-{[4-(2-vinylpyridin-4-yl)piperazine-1-yl]methyl}-4H-quinolizine-3-carboxylic acid] | 0.38 µM |
| CSc1cc(N2CCN(Cc3cc(C(=O)O)c(=O)n4ccccc34)CC2)ccn1 [Example 153, 1-({4-[2-(methylthio)pyridine-4-yl]piperazine-1-yl}methyl)-4-oxo-4H-quinolizine-3-carboxylic acid] | 0.64 µM |
| CS(=O)(=O)c1cc(N2CCN(Cc3cc(C(=O)O)c(=O)n4ccccc34)CC2)ccn1 [Example 154] | 1.65 µM |
| CN1CCN(Cc2cc(C(=O)O)c(=O)n3ccccc23)C(c2cccc(F)c2)C1=O (stereo not drawn) [Example 155, 1-{[2-(3-fluorophenyl)-4-methyl-3-oxopiperazin-1-yl]methyl}-4-oxo-4H-quinolizine-3-carboxylic acid] | 4.9 µM |
| O=C(O)c1cc(CN2CCN(c3ccccc3)C(=O)C2c2cccc(F)c2)c2ccccn2c1=O (stereo not drawn) [Example 160, 1-{[2-(3-fluorophenyl)-3-oxo-4-phenylpiperazin-1-yl]methyl}-4-oxo-4H-quinolizine-3-carboxylic acid] | 0.119 µM |
| O=C(O)c1cc(CN2CCOCC2)c2ccccn2c1=O [Example 179, 1-(morpholin-4-ylmethyl)-4-oxo-4H-quinolizine-3-carboxylic acid] | 6.9 µM |

More lines, now with the values ahead:

| EC50 | SMILES |
| --- | --- |
| 0.071 µM | O=C(O)c1cc(CN2CCN(c3ccc4sccc4c3)CC2)c2ccccn2c1=O [Example 143] |
| 0.081 µM | O=C(O)c1cc(CN2CCN(c3ccc4ncsc4c3)CC2)c2ccccn2c1=O [Example 144] |
| 0.091 µM | N#Cc1cc2cc(N3CCN(Cc4cc(C(=O)O)c(=O)n5ccccc45)CC3)ccc2o1 [Example 145, 1-{[4-(2-cyano-1-benzofuran-5-yl)piperazin-1-yl]methyl}-4-oxo-4H-quinolizine-3-carboxylic acid] |
| 0.616 µM | N#Cc1ccc(N2CCN(Cc3cc(C(=O)O)c(=O)n4ccccc34)CC2)cc1 [Example 146, 1-{[4-(4-cyanophenyl)piperazin-1-yl]methyl}-4-oxo-4H-quinolizine-3-carboxylic acid] |
| 0.614 µM | N#Cc1ccc(N2CCN(Cc3cc(C(=O)O)c(=O)n4ccccc34)CC2)cn1 [Example 147, 1-{[4-(6-cyanopyridin-3-yl)piperazin-1-yl]methyl}-4-oxo-4H-quinolizine-3-carboxylic acid] |

— patent US8273737B2, “Quinolizidinone M1 receptor positive allosteric modulators” (Merck Sharp & Dohme Corp., priority 2008, dated 2012)
